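These data come from cells grown in 96-well plates and exposed to compound for 48 hours at five concentrations. GI50 is the concentration that inhibits growth by half.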 Active and inactive are the calls of the source. Cut-off read from the data, not from the text of the source: active = GI50 up to about 1.1 µM and inactive = higher.
Legend:
Assay in all cases: NCI tumour cell line growth inhibition, 48 h
SF-268 = tested on: SF-268
OVCAR-4 = tested on: OVCAR-4
CCRF-CEM = tested on: CCRF-CEM
EKVX = tested on: EKVX
SF-295 = tested on: SF-295
NCI-H226 = tested on: NCI-H226
LOX IMVI = tested on: LOX IMVI
SN12C = tested on: SN12C
SNB-75 = tested on: SNB-75
HCT-116 = tested on: HCT-116
RXF 393 = tested on: RXF 393
ACHN = tested on: ACHN
NCI-H460 = tested on: NCI-H460
HOP-92 = tested on: HOP-92
A498 = tested on: A498
PC-3 = tested on: PC-3
T47D = tested on: T47D

SMILES | GI50 (SF-268) | GI50 (OVCAR-4) | GI50 (CCRF-CEM) | GI50 (EKVX) | GI50 (SF-295) | GI50 (NCI-H226) | GI50 (LOX IMVI) | GI50 (SN12C) | GI50 (SNB-75) | GI50 (HCT-116) | GI50 (RXF 393) | GI50 (ACHN) | GI50 (NCI-H460) | GI50 (HOP-92) | GI50 (A498) | GI50 (PC-3) | GI50 (T47D)
O=C1Nc2ccc(Cl)c(I)c2C1=O | 17.4 µM (inactive) | 18.1 µM (inactive) | 15.4 µM (inactive) | 5.62 µM (inactive) | 17.8 µM (inactive) | 0.608 µM (active) | 18.5 µM (inactive) | 17.2 µM (inactive) | 22.8 µM (inactive) | 15.2 µM (inactive) | 16.3 µM (inactive) | 16.7 µM (inactive) | 21.2 µM (inactive) |  |  |  | 
NC(=S)N/N=C1/CN(c2ccc(Cl)c(Cl)c2)CC(=O)C1c1nc2ccccc2s1 (centres undefined) | 46.8 µM (inactive) | 92.7 µM (inactive) | 66.2 µM (inactive) | > 100 µM (inactive) | 46.9 µM (inactive) | 78.7 µM (inactive) | 59.6 µM (inactive) | 95.7 µM (inactive) | 28.5 µM (inactive) | 35.6 µM (inactive) | > 100 µM (inactive) | 93.3 µM (inactive) | > 100 µM (inactive) | > 100 µM (inactive) | > 100 µM (inactive) |  | 
COC(=O)CCC12CCC(=O)C1[C@@H](C(=O)OC)C[C@H]2C(=O)OC (some centres undefined) | > 100 µM (inactive) | > 100 µM (inactive) | > 100 µM (inactive) | > 100 µM (inactive) | > 100 µM (inactive) | > 100 µM (inactive) | > 100 µM (inactive) | > 100 µM (inactive) | > 100 µM (inactive) | > 100 µM (inactive) | > 100 µM (inactive) | > 100 µM (inactive) | > 100 µM (inactive) |  | > 100 µM (inactive) |  | 
C#CCN(N=O)C(=O)ON1C(=O)CCC1=O | > 100 µM (inactive) | > 100 µM (inactive) | > 100 µM (inactive) | > 100 µM (inactive) | > 100 µM (inactive) |  | > 100 µM (inactive) | > 100 µM (inactive) | > 100 µM (inactive) | > 100 µM (inactive) | > 100 µM (inactive) | > 100 µM (inactive) | > 100 µM (inactive) | > 100 µM (inactive) | > 100 µM (inactive) |  | 
Cc1ccccc1C(C#N)C(=O)C(=O)Nc1nc([N+](=O)[O-])cs1 (centres undefined) | > 100 µM (inactive) | > 100 µM (inactive) |  | > 100 µM (inactive) |  | > 100 µM (inactive) | 40.2 µM (inactive) | > 100 µM (inactive) | > 100 µM (inactive) | > 100 µM (inactive) | > 100 µM (inactive) | > 100 µM (inactive) | > 100 µM (inactive) |  | > 100 µM (inactive) |  | 
CCc1ccccc1NC(=O)CCc1nnc(S)[nH]1 | > 100 µM (inactive) | > 100 µM (inactive) | > 100 µM (inactive) |  | > 100 µM (inactive) | > 100 µM (inactive) | > 100 µM (inactive) | > 100 µM (inactive) | > 100 µM (inactive) | > 100 µM (inactive) | > 100 µM (inactive) | > 100 µM (inactive) | > 100 µM (inactive) | > 100 µM (inactive) | > 100 µM (inactive) |  | 
CCN(CC)CCSc1c2ccccc2nc2c(OC)ccc(OC)c12 | 15.1 µM (inactive) | 10.7 µM (inactive) | 2.13 µM (inactive) | > 56.6 µM (inactive) | 33.4 µM (inactive) | 29.5 µM (inactive) | 4.81 µM (inactive) | 5.73 µM (inactive) | > 49.7 µM (inactive) | 3.04 µM (inactive) | 1.94 µM (inactive) | 5.61 µM (inactive) | 10.8 µM (inactive) | 2.36 µM (inactive) | 13.3 µM (inactive) |  | 
Oc1ccc(O)c(-n2cccn2)c1-n1cccn1 | > 100 µM (inactive) | > 100 µM (inactive) | > 10 µM (inactive) | > 100 µM (inactive) | 37.2 µM (inactive) |  | > 100 µM (inactive) | > 100 µM (inactive) | > 100 µM (inactive) |  | > 100 µM (inactive) | > 100 µM (inactive) | > 100 µM (inactive) | > 100 µM (inactive) | > 100 µM (inactive) |  | 
N#Cc1cc(C#N)c(Cl)nc1N | > 10 µM (inactive) | > 10 µM (inactive) | > 10 µM (inactive) | > 10 µM (inactive) | > 10 µM (inactive) | > 10 µM (inactive) | > 10 µM (inactive) | > 10 µM (inactive) | > 10 µM (inactive) | > 10 µM (inactive) | > 10 µM (inactive) | > 10 µM (inactive) | > 10 µM (inactive) | > 10 µM (inactive) |  | > 10 µM (inactive) | > 10 µM (inactive)
CCOC(=O)C1C2CCC(C2)C1(CCl)C(=O)OCC (centres undefined) | > 100 µM (inactive) | > 100 µM (inactive) | > 100 µM (inactive) |  | > 100 µM (inactive) | > 100 µM (inactive) | > 100 µM (inactive) | > 100 µM (inactive) |  | > 100 µM (inactive) |  | > 100 µM (inactive) | > 100 µM (inactive) | 36.6 µM (inactive) | > 100 µM (inactive) |  | 
CC1=CCCC(OC(N)=O)C1 (centres undefined) | > 100 µM (inactive) | > 100 µM (inactive) | > 100 µM (inactive) | > 100 µM (inactive) | > 100 µM (inactive) |  | > 100 µM (inactive) | > 100 µM (inactive) | 97.7 µM (inactive) | > 100 µM (inactive) | > 100 µM (inactive) | > 100 µM (inactive) | > 100 µM (inactive) | 46.2 µM (inactive) | 32.4 µM (inactive) |  | 
O=C(O)CNS(=O)(=O)c1ccc(NC(=O)c2ccccc2[N+](=O)[O-])cc1 | > 100 µM (inactive) | > 100 µM (inactive) | > 100 µM (inactive) | > 100 µM (inactive) |  |  | > 100 µM (inactive) | > 100 µM (inactive) | > 100 µM (inactive) |  | > 100 µM (inactive) | > 100 µM (inactive) | > 100 µM (inactive) | > 100 µM (inactive) | > 100 µM (inactive) |  | 
COC1=CC(=O)C(Br)=CC1=O | 18.6 µM (inactive) | 17.9 µM (inactive) | 2.54 µM (inactive) | 25.1 µM (inactive) |  |  | 18.2 µM (inactive) | 18.5 µM (inactive) | 15.2 µM (inactive) |  | 18.2 µM (inactive) |  | > 100 µM (inactive) | 15.9 µM (inactive) |  |  | 
CCOC(=O)C[C@@]12CCCN[C@]1(C)CCc1ccccc12 | > 100 µM (inactive) | > 100 µM (inactive) | > 100 µM (inactive) | > 100 µM (inactive) | > 100 µM (inactive) |  | > 100 µM (inactive) | > 100 µM (inactive) | > 100 µM (inactive) | > 100 µM (inactive) | > 100 µM (inactive) | > 100 µM (inactive) | > 100 µM (inactive) | 97.1 µM (inactive) | > 100 µM (inactive) |  | 
Cc1nc2cc(Nc3ccccc3C(=O)O)ccc2s1 | > 100 µM (inactive) | > 100 µM (inactive) | > 100 µM (inactive) |  | > 100 µM (inactive) |  | > 100 µM (inactive) | 63.4 µM (inactive) | > 100 µM (inactive) | 90.8 µM (inactive) | > 100 µM (inactive) | > 100 µM (inactive) | > 100 µM (inactive) | > 100 µM (inactive) | > 100 µM (inactive) |  | 
O=S(=O)(c1ccccc1)N1N=C2c3ccccc3CCC[C@H]2C1c1ccccc1 (some centres undefined) | > 100 µM (inactive) | > 100 µM (inactive) | > 100 µM (inactive) | > 84.3 µM (inactive) | > 100 µM (inactive) | > 66.1 µM (inactive) | > 87.9 µM (inactive) | > 100 µM (inactive) | > 74.6 µM (inactive) | > 100 µM (inactive) | > 100 µM (inactive) | > 100 µM (inactive) | 98.6 µM (inactive) | > 100 µM (inactive) | > 100 µM (inactive) |  | 
CC(C)(C)C(=O)Nc1cccc2oc(-c3ccccc3)cc12 |  | > 100 µM (inactive) | > 100 µM (inactive) | 65.3 µM (inactive) | > 100 µM (inactive) |  |  | > 100 µM (inactive) | 85.1 µM (inactive) |  | 17.3 µM (inactive) | > 100 µM (inactive) | > 100 µM (inactive) | 56.2 µM (inactive) | > 100 µM (inactive) |  | 
CS(=O)(=O)c1ccc(-c2cc(-c3ccc(S(C)(=O)=O)cc3)[n+](-c3cc(-c4ccc(S(C)(=O)=O)cc4)c([O-])c(-c4ccc(S(C)(=O)=O)cc4)c3)c(-c3ccc(S(C)(=O)=O)cc3)c2)cc1 | > 100 µM (inactive) | > 100 µM (inactive) | > 100 µM (inactive) |  | 91.8 µM (inactive) | > 100 µM (inactive) | > 100 µM (inactive) | > 100 µM (inactive) | > 100 µM (inactive) | > 100 µM (inactive) | > 100 µM (inactive) | > 100 µM (inactive) | > 100 µM (inactive) |  |  |  | 
O=C(O)CCC(NC(=O)c1ccc(Nc2nc3ccccc3nc2-c2cccs2)cc1)C(=O)O (centres undefined) | > 100 µM (inactive) | > 100 µM (inactive) | > 100 µM (inactive) | > 100 µM (inactive) | > 100 µM (inactive) | > 100 µM (inactive) | > 100 µM (inactive) | > 100 µM (inactive) | > 100 µM (inactive) | > 100 µM (inactive) | > 100 µM (inactive) | > 100 µM (inactive) | > 100 µM (inactive) | > 100 µM (inactive) | > 100 µM (inactive) |  | 
O=C(NCc1ccccc1)c1cc2cc(O)c(O)cc2cn1 | 14.4 µM (inactive) | 25.5 µM (inactive) | 6.4 µM (inactive) | 41.3 µM (inactive) | 24.3 µM (inactive) | 26.9 µM (inactive) | 14.4 µM (inactive) | 31.2 µM (inactive) | 23.8 µM (inactive) | 30.3 µM (inactive) | 21 µM (inactive) | 12.5 µM (inactive) | 9.79 µM (inactive) | 39.1 µM (inactive) | 73.3 µM (inactive) |  | 

Reference: ChEMBL document CHEMBL1201862, “PubChem BioAssay data set” (2004)
